Assay results as given in ChEMBL document CHEMBL1146963, “Synthesis and biological evaluation of alpha-galactosylceramide (KRN7000) and isoglobotrihexosylceramide (iGb3)” (Bioorg Med Chem Lett, 2006).
Activity calls are given as the source filed them.

Legend:
Assay type in all cases: functional, cell-based
[1] = system: iNKT; assay: Release of IL4 and IFN-gamma from human iNKT cells stimulated by C1R cell expressing human CD1d at 5 ug/ml
[2] = system: iNKT; assay: Release of IL4 and IFN-gamma from human iNKT cells stimulated by C1R cell expressing human CD1d at 20 ug/ml
[3] = system: iNKT; assay: Release of IL2 from mouse iNKT hybridoma stimulated by bone marrow-derived mouse DC at 0.2 ug/ml

Measured: Activity

CCCCCCCCCCCCC/C=C/[C@@H](O)[C@H](CO[C@@H]1O[C@H](CO)[C@@H](O[C@@H]2O[C@H](CO)[C@H](O)[C@H](O[C@H]3O[C@H](CO)[C@H](O)[C@H](O)[C@H]3O)[C@H]2O)[C@H](O)[C@H]1O)NC(=O)CCCCCCCCCCCCCCCCCCCCCCCCC
active: all assays above
